Laboratory results reported in ChEMBL document CHEMBL1201862, “PubChem BioAssay data set” (2004).
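Tested at 5 concentrations; 48 h exposure; 96-well plates; endpoints linearly interpolated, else capped at highest concentration. At the GI50, growth is halved.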 Activity calls are given as the source filed them. No stated cut-off is given here; in the data, active = GI50 up to about 1.1 µM and inactive = higher.

Key:
Assay in all cases: NCI anticancer screen, dose series, 48 h
786-0 = system: 786-0
ACHN = system: ACHN
BT-549 = system: BT-549
COLO 205 = system: COLO 205
HCT-116 = system: HCT-116
HOP-92 = system: HOP-92
Hs-578T = system: Hs-578T
IGROV-1 = system: IGROV-1
M14 = system: M14
MDA-MB-231 = system: MDA-MB-231
MDA-N = system: MDA-N
MOLT-4 = system: MOLT-4
Malme-3M = system: Malme-3M
RXF 393 = system: RXF 393
SK-MEL-2 = system: SK-MEL-2
SK-MEL-5 = system: SK-MEL-5
SR = system: SR
TK-10 = system: TK-10
HCC 2998 = system: HCC 2998
DMS-114 = system: DMS-114

Structure (SMILES) | GI50 (786-0) | GI50 (ACHN) | GI50 (BT-549) | GI50 (COLO 205) | GI50 (HCT-116) | GI50 (HOP-92) | GI50 (Hs-578T) | GI50 (IGROV-1) | GI50 (M14) | GI50 (MDA-MB-231) | GI50 (MDA-N) | GI50 (MOLT-4) | GI50 (Malme-3M) | GI50 (RXF 393) | GI50 (SK-MEL-2) | GI50 (SK-MEL-5) | GI50 (SR) | GI50 (TK-10) | GI50 (HCC 2998) | GI50 (DMS-114)
c1ccc(CN[C@]23C4C5CC6C7C5C2C7[C@@](NCc2ccccc2)(C64)N3Cc2ccccc2)cc1 (stereo not given in full) | > 100 µM (inactive) | > 100 µM (inactive) | > 100 µM (inactive) | > 100 µM (inactive) | > 100 µM (inactive) | > 100 µM (inactive) | > 100 µM (inactive) | > 100 µM (inactive) | > 100 µM (inactive) | > 100 µM (inactive) | > 100 µM (inactive) | > 100 µM (inactive) | > 100 µM (inactive) | > 100 µM (inactive) | > 100 µM (inactive) | > 100 µM (inactive) | 3.94 µM (inactive) | > 100 µM (inactive) | – | –
COc1c2c(cc3c1OCO3)C13C=CC(OC)CC1N(CC3)C2.[O-][Cl+3]([O-])([O-])O (stereo not given) | > 100 µM (inactive) | > 100 µM (inactive) | > 100 µM (inactive) | 35.6 µM (inactive) | > 100 µM (inactive) | > 100 µM (inactive) | > 100 µM (inactive) | > 100 µM (inactive) | > 100 µM (inactive) | > 100 µM (inactive) | 37.3 µM (inactive) | 36.4 µM (inactive) | > 100 µM (inactive) | > 100 µM (inactive) | > 100 µM (inactive) | 29 µM (inactive) | 4.9 µM (inactive) | > 100 µM (inactive) | 90.8 µM (inactive) | –
COC(=O)C1(NC(=O)C(CC(=O)OCc2ccccc2)NC(=O)OCc2ccccc2)CCCCCCC1 (stereo not given) | 63.8 µM (inactive) | 34.4 µM (inactive) | 23.9 µM (inactive) | 25.8 µM (inactive) | 27.9 µM (inactive) | 42.9 µM (inactive) | 45.6 µM (inactive) | 30 µM (inactive) | 34.4 µM (inactive) | 56.4 µM (inactive) | 28.6 µM (inactive) | 4.69 µM (inactive) | – | 15.4 µM (inactive) | – | 13.8 µM (inactive) | 5.35 µM (inactive) | 47.4 µM (inactive) | – | –
C=C1CCCC(C)(C)[C@@H]1CC/C(C)=C/Cn1c2cccc(=O)c-2nc2ccccc21 | – | – | – | 1.96 µM (inactive) | 1.35 µM (inactive) | 1.94 µM (inactive) | – | 1.71 µM (inactive) | – | – | – | 0.41 µM (active) | – | – | 2.37 µM (inactive) | 3.95 µM (inactive) | – | – | 2.06 µM (inactive) | 1.09 µM (active)
CCOC(=O)c1c(N)sc2c1CC(C)CC2 (stereo not given) | 23.4 µM (inactive) | 39.9 µM (inactive) | 54.2 µM (inactive) | 27.9 µM (inactive) | 47.6 µM (inactive) | 27.7 µM (inactive) | 43.7 µM (inactive) | 57.4 µM (inactive) | 26.8 µM (inactive) | 33.4 µM (inactive) | 47.5 µM (inactive) | 30.9 µM (inactive) | 38 µM (inactive) | 18.6 µM (inactive) | 31.9 µM (inactive) | 19.2 µM (inactive) | 28.6 µM (inactive) | 45.6 µM (inactive) | 19.7 µM (inactive) | –
O=S(=O)(O)SCCNCCCCCC1CCCCC1 | 13.4 µM (inactive) | 16.1 µM (inactive) | 14.9 µM (inactive) | 16.6 µM (inactive) | 5.05 µM (inactive) | 20.8 µM (inactive) | 14.5 µM (inactive) | 8.65 µM (inactive) | 4.95 µM (inactive) | 14.8 µM (inactive) | 12.8 µM (inactive) | 8.05 µM (inactive) | 18.8 µM (inactive) | 17.1 µM (inactive) | 2.87 µM (inactive) | 15.8 µM (inactive) | 8.99 µM (inactive) | 9.38 µM (inactive) | 5.41 µM (inactive) | –
O=C(O)CCC(=O)N1c2ccccc2CC1c1c[nH]c2ccccc12 (stereo not given) | > 100 µM (inactive) | > 100 µM (inactive) | – | > 100 µM (inactive) | > 100 µM (inactive) | > 100 µM (inactive) | – | > 100 µM (inactive) | > 100 µM (inactive) | – | – | > 100 µM (inactive) | > 100 µM (inactive) | > 100 µM (inactive) | > 100 µM (inactive) | > 100 µM (inactive) | – | > 100 µM (inactive) | > 100 µM (inactive) | > 100 µM (inactive)
CCCCCCCCCCCCCCCCNCCCN(C)CCCN | 15.2 µM (inactive) | 19.4 µM (inactive) | – | 22.1 µM (inactive) | 18.7 µM (inactive) | – | – | 20.3 µM (inactive) | 17.1 µM (inactive) | – | – | 28.8 µM (inactive) | – | – | 20.8 µM (inactive) | 16 µM (inactive) | 21 µM (inactive) | 15 µM (inactive) | 18.3 µM (inactive) | 16.6 µM (inactive)
O=C(/N=N/c1ccc(Br)cc1)NNc1ccc(Br)cc1 | – | – | > 10 µM (inactive) | 23 µM (inactive) | 17.5 µM (inactive) | 16.1 µM (inactive) | > 10 µM (inactive) | 22.1 µM (inactive) | 17.1 µM (inactive) | 21.2 µM (inactive) | 24.2 µM (inactive) | 11.8 µM (inactive) | 26 µM (inactive) | 14.1 µM (inactive) | 19.1 µM (inactive) | 13.9 µM (inactive) | 28.6 µM (inactive) | – | 21.5 µM (inactive) | –
CCOC(=O)/C=C(\N=P(c1ccccc1)(c1ccccc1)c1ccccc1)C(F)(F)C(F)(F)C(F)(F)C(F)(F)C(F)(F)F | > 100 µM (inactive) | 47.8 µM (inactive) | > 100 µM (inactive) | > 100 µM (inactive) | > 100 µM (inactive) | > 100 µM (inactive) | > 100 µM (inactive) | > 100 µM (inactive) | > 100 µM (inactive) | > 100 µM (inactive) | > 100 µM (inactive) | > 100 µM (inactive) | > 100 µM (inactive) | > 100 µM (inactive) | > 100 µM (inactive) | > 100 µM (inactive) | > 100 µM (inactive) | > 100 µM (inactive) | > 100 µM (inactive) | –
CCCc1onc(CCC(=O)N(Cc2ccccc2)Cc2ccccc2)c1CC | > 100 µM (inactive) | > 100 µM (inactive) | – | > 100 µM (inactive) | – | 48.8 µM (inactive) | – | > 100 µM (inactive) | > 100 µM (inactive) | – | – | > 100 µM (inactive) | > 100 µM (inactive) | – | > 100 µM (inactive) | – | – | – | > 100 µM (inactive) | > 100 µM (inactive)
CC(C)c1cc2c(c(O)c1O)[C@@]1(C)CCCC(C)(C)C1=C(O)C2 | 2.51 µM (inactive) | 1.57 µM (inactive) | 1.36 µM (inactive) | 2.84 µM (inactive) | 2.27 µM (inactive) | 0.817 µM (active) | 1.81 µM (inactive) | 1.04 µM (active) | 2.36 µM (inactive) | > 50 µM (inactive) | 1.77 µM (inactive) | 1.4 µM (inactive) | 1.26 µM (inactive) | 0.964 µM (active) | 0.968 µM (active) | 1.03 µM (active) | 1.7 µM (inactive) | 1.91 µM (inactive) | 1.01 µM (active) | –
O=C(O)CC(Cc1ccc2c(c1)OCO2)C(=O)O (stereo not given) | > 100 µM (inactive) | > 100 µM (inactive) | > 100 µM (inactive) | > 100 µM (inactive) | > 100 µM (inactive) | > 100 µM (inactive) | > 100 µM (inactive) | > 100 µM (inactive) | > 100 µM (inactive) | > 100 µM (inactive) | > 100 µM (inactive) | > 100 µM (inactive) | > 100 µM (inactive) | > 100 µM (inactive) | > 100 µM (inactive) | > 100 µM (inactive) | > 100 µM (inactive) | > 100 µM (inactive) | > 100 µM (inactive) | –
C[C@@]12CC[C@H]3[C@@H]4CCC(=O)N[C@@]4(C)CC[C@@H]3[C@@]1(C)CC[C@H](OC(=O)Cc1ccc(N(CCCl)CCCl)cc1)C2 | – | – | – | 20.4 µM (inactive) | 16.4 µM (inactive) | 19 µM (inactive) | – | 16.2 µM (inactive) | – | – | – | 10.1 µM (inactive) | 19.5 µM (inactive) | 16.5 µM (inactive) | 51.1 µM (inactive) | 13.7 µM (inactive) | – | – | 16.3 µM (inactive) | 15 µM (inactive)
Oc1cccc2c(Cl)ccnc12 | 10.9 µM (inactive) | 1.99 µM (inactive) | 13.7 µM (inactive) | 14.3 µM (inactive) | 0.279 µM (active) | 2.84 µM (inactive) | 7.93 µM (inactive) | 1.61 µM (inactive) | 1.44 µM (inactive) | 1.13 µM (inactive) | 3.58 µM (inactive) | 0.376 µM (active) | 6.97 µM (inactive) | 0.83 µM (active) | – | 1.22 µM (inactive) | 0.243 µM (active) | 44.3 µM (inactive) | 4.43 µM (inactive) | –
Cn1c(=O)nc2n(-c3ccc(F)cc3)c3ccccc3nc-2c1=O | 28.2 µM (inactive) | 13.9 µM (inactive) | – | 6.84 µM (inactive) | 17.5 µM (inactive) | – | – | 24 µM (inactive) | 13.9 µM (inactive) | – | – | 25.7 µM (inactive) | 10.5 µM (inactive) | 23.8 µM (inactive) | 19 µM (inactive) | 12.6 µM (inactive) | – | 26.5 µM (inactive) | 19.1 µM (inactive) | 12.8 µM (inactive)
CCN(CC)CCSc1nc2cccc([N+](=O)[O-])c2[nH]1 | – | – | – | > 100 µM (inactive) | – | 33.4 µM (inactive) | – | > 100 µM (inactive) | > 100 µM (inactive) | – | – | > 100 µM (inactive) | – | > 100 µM (inactive) | – | > 100 µM (inactive) | – | > 100 µM (inactive) | > 100 µM (inactive) | > 100 µM (inactive)
